US5225438A, “Aryl derivatives” (Imperial Chemical Industries PLC, priority 1990, dated 1993)
pIC50: −log10 of the molar value.

Key:
[1] = biological target: T1, 5-LO (Homo sapiens, UniProt P09917); test: Test a) in vitro human blood challenged with calcium ionophore A23187, LTB4 radioimmunoassay; assay type: cell-based; conditions: heparinised human blood
T1 construct: incubating a test compound with heparinised human blood, prior to challenge with the calcium ionophore A23187; endogenous in cells; host or cells: blood cells in heparinised human whole blood
T1 sequence (P09917 1-674): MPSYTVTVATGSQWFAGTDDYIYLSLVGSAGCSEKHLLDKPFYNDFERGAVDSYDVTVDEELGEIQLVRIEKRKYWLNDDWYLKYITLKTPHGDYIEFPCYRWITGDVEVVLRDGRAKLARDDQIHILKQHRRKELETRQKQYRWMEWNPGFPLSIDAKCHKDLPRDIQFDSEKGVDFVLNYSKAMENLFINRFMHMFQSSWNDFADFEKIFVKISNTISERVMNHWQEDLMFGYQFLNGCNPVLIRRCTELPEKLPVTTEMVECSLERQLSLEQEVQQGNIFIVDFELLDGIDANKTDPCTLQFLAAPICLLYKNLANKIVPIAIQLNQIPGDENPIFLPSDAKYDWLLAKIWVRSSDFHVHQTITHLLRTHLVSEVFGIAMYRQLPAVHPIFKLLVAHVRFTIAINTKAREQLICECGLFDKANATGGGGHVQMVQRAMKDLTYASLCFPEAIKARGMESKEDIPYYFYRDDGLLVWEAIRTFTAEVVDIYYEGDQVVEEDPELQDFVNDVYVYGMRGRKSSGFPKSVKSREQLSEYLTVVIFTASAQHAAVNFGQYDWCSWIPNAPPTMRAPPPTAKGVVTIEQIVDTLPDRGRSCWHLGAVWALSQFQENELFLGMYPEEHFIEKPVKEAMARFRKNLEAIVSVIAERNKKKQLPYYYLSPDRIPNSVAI
Protocol: a) An in vitro assay system involving incubating a test compound with heparinised human blood, prior to challenge with the calcium ionophore A23187 and then indirectly measuring the inhibitory effects on 5-LO by assaying the amount of LTB4 using specific radioimmunoassays described by Carey and Forder (Prostaglandins, Leukotrienes Med., 1986, 22, 57; Prostaglandins, 1984, 28, 666; Brit. J. Pharmacol., 1985, 84, 34P) which involves the use of a protein-LTB4 conjugate produced using the procedure of Young et alia (Prostaglandins, 1983, 26(4), 605-613). The effects of a test compound on the enzyme cyclooxygenase (which is involved in the alternative metabolic pathway for arachidonic acid and gives rise to prostaglandins, thromboxanes and related metabolites) may be measured at the same time using the specific radioimmunoassay for thromboxane B2 (TxB2) described by Carey and Forder (see above). This test provides an indication of the effects of a test compound against 5-LO and also cyclooxygenase in the presence of blood cells and proteins. It permits the selectivity of the inhibitory effect on 5-LO or cyclooxygenase to be assessed.

[2] = biological target: T2, 5-LO (Rattus norvegicus, UniProt P12527); test: Test c) in vivo zymosan-induced liberation of LTB4 within an air pouch of male rats; conditions: 3 h; test c), oral
T2 construct: liberation of LTB4 induced by zymosan within an air pouch generated within the subcutaneous tissue of the back of male rats; from tissue; host or cells: live male rats, zymosan-inflamed subcutaneous air pouch (endogenous enzyme)
T2 sequence (P12527 1-673): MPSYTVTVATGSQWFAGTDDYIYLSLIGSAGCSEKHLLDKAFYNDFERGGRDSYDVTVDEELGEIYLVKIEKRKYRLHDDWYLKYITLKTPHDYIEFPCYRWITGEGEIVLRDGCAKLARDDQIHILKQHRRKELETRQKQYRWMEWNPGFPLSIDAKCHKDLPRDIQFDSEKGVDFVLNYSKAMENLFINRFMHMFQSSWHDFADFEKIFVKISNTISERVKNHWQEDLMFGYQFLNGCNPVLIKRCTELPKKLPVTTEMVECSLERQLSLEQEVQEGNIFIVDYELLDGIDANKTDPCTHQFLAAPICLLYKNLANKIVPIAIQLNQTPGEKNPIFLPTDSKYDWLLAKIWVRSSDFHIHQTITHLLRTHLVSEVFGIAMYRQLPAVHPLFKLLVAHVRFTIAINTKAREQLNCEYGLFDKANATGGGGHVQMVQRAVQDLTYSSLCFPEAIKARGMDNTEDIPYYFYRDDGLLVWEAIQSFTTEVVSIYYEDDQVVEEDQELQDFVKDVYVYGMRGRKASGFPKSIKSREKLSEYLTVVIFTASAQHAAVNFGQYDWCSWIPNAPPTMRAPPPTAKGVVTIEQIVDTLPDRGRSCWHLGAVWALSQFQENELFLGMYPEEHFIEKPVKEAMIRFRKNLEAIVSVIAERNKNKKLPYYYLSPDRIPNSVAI
Protocol: c) An in vivo system involving measuring the effects of a test compound administered orally against the liberation of LTB4 induced by zymosan within an air pouch generated within the subcutaneous tissue of the back of male rats. The rats are anaesthetised and air pouches are formed by the injection of sterile air (20 ml). A further injection of air (10 ml) is similarly given after 3 days. At 6 days after the initial air injection the test compound is administered (usually orally as the suspension produced when a solution of the test compound in dimethylsulphoxide is added to hydroxypropylmethylcellulose), followed by the intrapouch injection of zymosan (1 ml of a 1% suspension in physiological saline). After 3 hours the rats are killed, the air pouches are lavaged with physiological saline, and the specific radioimmunoassay described above is used to assay LTB4 in the washings. This test provides an indication of inhibitory effects against 5-LO in an inflammatory milieu.

Compound | pIC50 [1] | ED50 [2] [mg/kg]
COC1(c2cccc(Sc3ccc(Cc4ccc(F)cc4)cc3)c2)CCOCC1 [4-[3-(4-(4-fluorobenzyl)phenylthio)phenyl]-4-methoxytetrahydropyran] | 7.40 | 2
COC1(c2cc(F)cc(Sc3ccc(C(F)(F)c4ccc(F)cc4)cc3)c2)CCOCC1 [4-[5-fluoro-3-(4-(4-fluoro-alpha,alpha-difluorobenzyl)phenylthio)phenyl]-4-methoxytetrahydropyran] | 6.85 | 1
